Source: EP0343223B1, “USE OF MELATONIN OR DERIVATIVES THEREOF FOR THE PRODUCTION OF PHARMACEUTICAL COMPOSITIONS EFFECTIVE TO COUNTERACT THE EFFECTS OF AGING” (priority 1987, dated 1989)

Experiments:
Type in all cases: in vivo
[1] = tested on: C57BL/6J inbred male mice; test: Nocturnal oral melatonin in the drinking water of aging mice: life span and body weight
Experimental: Experiments were initiated in 1985 in which groups of C57BL/6J inbred male mice, aged 575 days (10 mice per group), were given melatonin (10 µg/ml) in the drinking water while the controls received tap water containing the same amount of absolute ethanol used to prepare melatonin stock solution (1 ml ethanol in 10 liters of tap water). The drinking water with or without melatonin was given at 6 p.m. and removed at 8.30 a.m. The drinking water was changed twice weekly. Starting at 5 months after initiation of the nocturnal, oral melatonin treatment, when the mice reached two years of age, a striking difference of body weight and of general body and pelage conditions started to be evident. Although some of the mice died earlier in both groups, the majority of the surviving mice treated with melatonin maintained their optimal body weight until 28 to 33 months of age (35.8± 4 grams) while the untreated mice lost progressively weight and were all dead within 29 months of age. Average body weight of the control mice at 27 months of age was 27.8± 4 grams.
The last melatonin-treated mouse died at 3 years of age. These date though preliminary make it evident that melatonin treatment of aging mice prolonged their life or circa 20 percent (average 6 months longer). The life span of melatonin-treated mice was 931 ± 80 days while that of control mice was 755 ± 81 days (p < 0.01).

T3 and T4 = T3 and T4 by radioimmunoassay in serum of aging mice after chronic night melatonin in drinking water
Text: It can be seen (Table 1) that chronical treatment with melatonin in the drinking water in aging mice elevates the levels of T3 ([…]) and T4 (tyroxine) in their peripheral blood and corrects thus ageing-related thyroid dysfunction or lowered function.

lipids in blood = test: Lipids in blood of aging mice after chronic night melatonin treatment; conditions: data not shown
Text: It follows that the increase of the production of thyroid hormones induced in vivo by exogenous melatonin should also be accompanied by an improved degradation of cholesterol, triglycerides and phospholipids and by detoxification effects at the liver level, all these beneficial effects resulting in a slowing down of the aging process.

[2] = C3H/He female, age 23 months, 3 months of melatonin treatment
[3] = C3H/He female, age 23 months, 3 months of melatonin treatment, serum
[4] = C57BL/6 female, age 22 months, 5 months of melatonin treatment

With `COc1ccc2[nH]cc(CCNC(C)=O)c2c1` [melatonin] the “age at death of the last melatonin-treated mouse” value ([1]; C57BL/6J male mice) was 3 years, the life span ([1]; C57BL/6J male mice, melatonin 10 µg/ml in drinking water 6 p.m. to 8.30 a.m., from 575 days of age, p < 0.01 vs control) was 931 ± 80 days and the body weight ([1]; surviving melatonin-treated mice, maintained until 28 to 33 months of age, 10 µg/ml in drinking water at night, started at 575 days of age) was 35.8± 4 grams. The “average life prolongation (longer)” value ([1]; versus control mice) was 6 months, the prolonged their life ([1]; versus control mice) was “circa 20%” and the “T3 change vs untreated” value (T3 and T4; [2]) was “+25%”. For the same compound, the T4/T3 (T3 and T4; [2]) was 42.47, the “T4/T3 change vs untreated” value (T3 and T4; [2]) was “+18%” and the “T4 change vs untreated” value (T3 and T4; [2]) was “+34%”. For the same compound, the T3 (T3 and T4; [3]) was 0.664± 0.137, the T4 (T3 and T4; [3]) was 28.2± 0.8 and the “T3 change vs untreated” value (T3 and T4; [4]) was “+11%”. For the same compound, the T4/T3 (T3 and T4; [4]) was 54.27, the “T4/T3 change vs untreated” value (T3 and T4; [4]) was “+10%” and the “T4 change vs untreated” value (T3 and T4; [4]) was “+20%”. For the same compound, the T3 (T3 and T4; C57BL/6 female, age 22 months, 5 months of melatonin treatment, serum) was 0.691± 0.077 and the “aging-related increase of lipids in blood” value (lipids in blood) was “corrects the aging-related increase of lipids in blood”.
